Patent US20200345021A1, “METHOD AND SYSTEM FOR ENHANCING THE EFFICACY USING IONIZED/A[…] PEROXIDE IN REDUCING MICROBIAL POPULATIONS, METHOD OF USE THEREOF” (priority 2019, published 2020)
Where “and” joins values, the source holds several entries; their conditions need not be identical. Equal values may be shown once. Read-outs that look alike come from different tables or passages of the source. Marks after values point to notes of the source that are not given here.

Columns and labels:
L. innocua = details: 45 s treatment + 30 min dwell
[1] = From the text: Specifically, a scanning mobility particle sizer (SMPS Model 3080, TSI inc., Shoreview, Minn., USA) and an aerodynamic particle sizer (APS Model 3321, TSI Inc.) were connected to the treatment chamber through an access port in the back of the treatment chamber to measure droplet sizes ranging from 2.5 to 210 nm, and from 0.5 to 20 μm, respectively.
Listeria innocua = test: Effect of cold plasma activation on efficacy of ionized/aerosolized H2O2 against Listeria innocua (Study 2); assay type: cell-based; details: for Reductions of Listeria on all types and surfaces of fresh produce except the tomato stem scar area: optimized conditions
From the text: To minimize the risk of possible bacteria becoming airborne during treatments, attenuated and non-pathogenic bacteria were used in the study. Two strains of non-pathogenic S. Typhimurium (ATCC 53647 and 53648) and three strains of L. innocua (ATCC 33090, ATCC 51742 and ATCC BAA680) were obtained from American Type Culture Collection (ATCC) (Manassas, Va., USA). Further studies used E. coli O157:H7 (ATCC 700728), S. Typhimurium (ATCC 53647 and 53648), and L. innocua (ATCC 33090) obtained from American Type Culture Collection (ATCC) (Manassas, Va., USA) and maintained as a part of the culture collection at the USDA Eastern Regional Research Center (Wyndmoor, Pa. USA). The bacteria were made to be resistant to nalidixic acid by successive growth in Trypic Soy Broth (TSB) (Difco, Sparks, Md., USA) with increasing nalidixic acid concentrations. All strains were stored at −80° C. in 1 mL of TSB containing 10% glycerol. Working cultures of S. Typhimurium and L. innocua were maintained in 9 mL TSB (supplemented with 100 μg/mL nalidixic acid for S. Typhimurium) at 4° C. after incubating at 37° C. for […], respectively, and sub-cultured each time.
Each strain of S. Typhimurium and L. innocua was cultured in 9 mL TSB (supplemented with 100 μg/mL nalidixic acid for S. Typhimurium) and incubated at 37° C. for 40 h and 48 h, respectively, harvested by centrifugation at 4000×g for 10 min at 4° C., and resuspended in 9 mL sterile Buffered Peptone Water (BPW; Difco). The pellets were resuspended in BPW to form cell suspensions with a final concentration of 108˜10^9 CFU/mL. Subsequently, suspended pellets of two strains of Salmonella and three strains of L. innocua were combined to obtain two separate culture cocktails.
Grape tomatoes, granny smith apples, romaine lettuce and cantaloupes were purchased from local markets (Philadelphia, Pa., USA) and kept at 10° C. prior to use. Fruits and vegetables were removed from 10° C. refrigeration and equilibrated to ambient temperature before being inoculated. Romaine lettuce was divided into upper green leaf and midrib tissues. Six tomatoes, six pieces (2×2 cm) of apple skins, five pieces (3×3 cm) of Romaine lettuce upper leaves, five pieces (3 cm length) of Romaine lettuce midrib area and six pieces (2×2 cm) of cantaloupe rinds with 2×3 mm thickness of flesh were used for each treatment per replicate. Bach piece w as spot inoculated with 10 μL of Salmonella and L. innocua by depositing droplets with a micropipette. The inoculated samples were dried in a bio-hood for 1 h (for tomato surfaces, romaine lettuce, apple skins and cantaloupe rinds) or 2 h (for tomato stem scars) at ambient temperature.
Produce items were placed onto a sterile test tube rack with the inoculated area facing up and the rack with produce pieces were placed inside of a treatment chamber (12×12×24 inch).
Therefore, each kind of produce was treated with and without cold plasma ionized under the same optimized conditions.
After each treatment, the tomato stem scars and surfaces with the inoculated bacteria were removed using a pair of sterile scissors. Each type of produce item from the same treatment was combined (total weight: 1.51±0.29 g for tomato stem scars; 2.07±0.15 g for tomato surfaces; 6.37±0.92 g for apple skins; 1.62±0.34 g for Romaine lettuce upper leaves: 13.30±2.97 g for Romaine lettuce midrib tissues: 9.58±1.26 g for cantaloupe rinds) and transferred into an 80 mL filtered stomacher bag. After addition of 30 mL BBL buffered peptone water into the bag, the sample in the bag was homogenized using a mini blender (Mini Mix CC, Interscience laboratories Inc., Woburn, Mass., USA) for 2 min at a setting of 4. […] Tryptic Soy Agar with 200 μg/mL pyruvate acid and 100 μg/mL nalidixic acid (TSA-PN) and PALCAM Agars (Difco) were used for the enumeration of S. Typhimurium and L. innocua, respectively.

yeast and mold = details: for Yeast and mold count: not inoculated
Description: The untreated (control) and treated samples were placed separately in a Stomacher bag with 20˜100 ml of neutralizing buffer and pummeled at 260 rpm for 2 mm using Stomacher (Interscience Laboratories Inc.). Decimal dilutions of the samples were made with 0.1% peptone (Difco) and aliquots (0.1 or 1 ml) were spread plated in duplicate onto TSA with incubation at 37° C. for 24 h for the enumeration of total aerobic plate count (APC), and onto Dichloran Rose Bengal Chlortetracycline (DRBC, Difco) agar with incubation at 25° C. for 5 days for enumeration of yeast and mold. DRBC plates were wrapped with aluminum foil to […]. Experiments were conducted independently 8 times. Colonies were counted and reported as log CFU/piece.
Produce items were placed onto a sterile test tube tack with inoculated area facing up. […] The distance and voltage between the two electrodes were 9 mm and 17 kV, respectively. […] After 45 s treatment, the chamber was sealed for 30 mins (dwell time) before removal of the fresh produce items. Experiment; were repeated three times.

[2] = treatment chamber, immediately after introduction
[3] = Tomato-stem scar, three cycles of 20 s spray time plus 20 min dwell time, listed as H2O2 + cold plasma

OO [H2O2, hydrogen peroxide]
Populations of L. innocua (L. innocua; cantaloupe): 3.5 +/− 0.2b log CFU/piece
Reduction of L. innocua (L. innocua; cantaloupe): 3.0 log CFU/piece
Populations of L. innocua (L. innocua; spinach): 2.5 +/− 1.9b log CFU/piece
Reduction of L. innocua (L. innocua; surface of spinach leaves): 4.0 log CFU/leaf
Reduction of L. innocua (L. innocua; tomato stem scar area, listed as ionized/aerosolized hydrogen peroxide (H2O2)): 1.0-1.3 log CFU/piece and 1.3 log CFU/piece
Populations of L. innocua (L. innocua; tomato stem scar): 4.9 +/− 0.4b log CFU/piece
Nanosize droplets remained in the treatment chamber ([1]; after 30 min (end of treatment)): about 8%
Share of droplets in the range of <5 μm ([1]; micrometer range, immediately after introduction): About 80%
Mean diameter of droplets in the micrometer range [1, 2]: 3.0 μm
Mean diameter of nanosize droplets [1, 2]: 40.3 nm
Mode (peak) of nanosize droplets [1, 2]: 33.4 nm
Mode of droplets in the micrometer range [1, 2]: 4.0 μm
Total number of droplets in micrometer range (0.5-20 μm) [1, 2]: 4390 #/cc
Total number of droplets in the nanosize range [1, 2]: 84,000 #/cc
Listeria reductions for cantaloupes and two locations on lettuces (Listeria innocua): 2.61 to 3.40 log CFU/piece
Populations of Listeria innocua (Listeria innocua; Cantaloupe rind, 30 s spray time + 30 min dwell, ND1: not detectable (detection limit 0.70 log CFU/piece), listed as H2O2 + cold plasma): ND1^c
Reductions of Listeria innocua (Listeria innocua; Cantaloupe rind, 30 s spray time + 30 min dwell, listed as H2O2 + cold plasma): 5.10 ± 0.30^x log CFU/piece
Populations of Listeria innocua (Listeria innocua; Granny Smith apple, 8 s spray time + 30 min dwell, ND1: not detectable (detection limit 0.70 log CFU/piece), listed as H2O2 + cold plasma): ND1^c
Reductions of Listeria innocua (Listeria innocua; Granny Smith apple, 8 s spray time + 30 min dwell, listed as H2O2 + cold plasma): 5.24 ± 0.22^x log CFU/piece
Populations of Listeria innocua (Listeria innocua; Romaine lettuce-midrib, 30 s spray time + 30 min dwell, ND2: not detectable (detection limit 0.76 log CFU/piece), listed as H2O2 + cold plasma): ND2^c
Reductions of Listeria innocua (Listeria innocua; Romaine lettuce-midrib, 30 s spray time + 30 min dwell, listed as H2O2 + cold plasma): 5.21 ± 0.11^x log CFU/piece
Populations of Listeria innocua (Listeria innocua; Romaine lettuce-upper leaf, 30 s spray time + 30 min dwell, ND2: not detectable (detection limit 0.76 log CFU/piece), listed as H2O2 + cold plasma): ND2^c
Reductions of Listeria innocua (Listeria innocua; Romaine lettuce-upper leaf, 30 s spray time + 30 min dwell, listed as H2O2 + cold plasma): 5.19 ± 0.08^x log CFU/piece
Populations of Listeria innocua (Listeria innocua; [3]): 2.94 ± 0.89^c log CFU/piece
Reductions of Listeria innocua (Listeria innocua; [3]): 2.62 ± 0.89^x log CFU/piece
Reductions of Listeria innocua (Listeria innocua; Tomato-stem scar, three cycles of 20 s spray time plus 20 min dwell time, listed as iHP): 2.36 log CFU/piece
Populations of Listeria innocua (Listeria innocua; Tomato-surface, 8 s spray time + 30 min dwell, ND1: not detectable (detection limit 0.70 log CFU/piece), listed as H2O2 + cold plasma): ND1^c
Reductions of Listeria innocua (Listeria innocua; Tomato-surface, 8 s spray time + 30 min dwell, listed as H2O2 + cold plasma): 5.16 ± 0.20^x log CFU/piece
Reductions of Listeria on all types and surfaces of fresh produce except the tomato stem scar area (Listeria innocua; listed as cold plasma-activated hydrogen peroxide (H2O2)): > 5 log CFU/piece
Reductions of Listeria on all types and surfaces of fresh produce except the tomato stem scar area (Listeria innocua; listed as hydrogen peroxide (H2O2) with cold plasma): more than 5 log CFU/piece
Reductions of Listeria on all types and surfaces of fresh produce except the tomato stem scar area (Listeria innocua; listed as iHP): more than 5 log CFU/piece
Yeast and mold count (yeast and mold; cantaloupe): 4.7 +/− 0.9a Log CFU/piece
Reduction of yeast and mold count (yeast and mold; spinach): 2.2 log
Yeast and mold count (yeast and mold; spinach): 4.2 +/− 2.0b Log CFU/piece
Reduction of yeast and mold count (yeast and mold; tomato): 3.9 log
Yeast and mold count (yeast and mold; tomato): 2.2 +/− 1.5b Log CFU/piece
Reduction of E. coli populations (E. coli O157:H7): 1.5 log
